Reference: article PMC8966731 (2022)
Bridge positions count the residues as written; N and C are the ends. Square brackets hold non-standard residues; d marks the D form.

System: SARS-CoV-2 M^pro
Settings: 37 °C, up to 1 h

AcyLQYAVLRHKRREC ({CH2CO}-[dY]LQYAVLRHKRREC-NH2; thioether N-14; SMILES CC(C)C[C@@H]1NC(=O)[C@H](C(C)C)NC(=O)[C@H](C)NC(=O)[C@H](Cc2ccc(O)cc2)NC(=O)[C@H](CCC(N)=O)NC(=O)[C@H](CC(C)C)NC(=O)[C@@H](Cc2ccc(O)cc2)NC(=O)CSC[C@@H](C(N)=O)NC(=O)[C@H](CCC(=O)O)NC(=O)[C@H](CCCNC(=N)N)NC(=O)[C@H](CCCNC(=N)N)NC(=O)[C@H](CCCCN)NC(=O)[C@H](Cc2c[nH]cn2)NC(=O)[C@H](CCCNC(=N)N)NC1=O)
cleaved bond: Gln3-Tyr4, minor, 1 h
